Values after ≈ are worked out from the molar mass of the structure shown. A value given as a limit tells only on which side of the number the result lay.

The clearance is the volume of plasma or blood freed of the substance per unit of time. The term bioavailability denotes dose-corrected exposure relative to a reference, in per cent. The EC50 is the concentration needed to bring the measured effect to its halfway point. A word on the logD: it is the decadic logarithm of the distribution of all forms, ionised or not, between an organic phase and buffer at a given pH. What is called Papp A→B is the apparent permeability from the apical to the basolateral side of a cell layer. Broadly, the IC50 is the point on the concentration scale where inhibition reaches its midpoint. As usually defined, the solubility is the dissolved amount per volume that the medium holds.

Data set [1] in a line: Clearance in rat. Type of data set: ADME, organism-based. Conditions: in vivo.
Data set [2] is described as follows: Volume of distribution at steady state in rat. It is filed as ADME, organism-based. The note with it: in vivo, read-out: Vdss.
Data set [3] can be described thus: Oral bioavailability in rat. The note with it: in vivo. Type of data set: ADME, organism-based.
Data set [4] is described as follows: Clearance in dog. It is filed as ADME, organism-based, Canis lupus familiaris. The note with it: in vivo.
The nature of data set [5]: Volume of distribution at steady state in dog. It is filed as ADME, organism-based, Canis lupus familiaris. The note with it: in vivo, read-out: Vdss.
Data set [6] is described as follows: Oral bioavailability in dog. Type of data set: ADME, organism-based, Canis lupus familiaris. The note with it: in vivo.
In data set [7] the test system is Rattus norvegicus. Briefly: Antidiabetic activity in high fat fed Zucker rat assessed as reduction of AUC of plasma glucose level at 10 mg/kg by oral glucose tolerance test. Type of data set: functional. More on the design: scale not given: the % may be the effect or the level left.
The target of the next data set is T1, Hexokinase-4 (Homo sapiens, UniProt P35557).
T1 sequence (P35557 whole entry): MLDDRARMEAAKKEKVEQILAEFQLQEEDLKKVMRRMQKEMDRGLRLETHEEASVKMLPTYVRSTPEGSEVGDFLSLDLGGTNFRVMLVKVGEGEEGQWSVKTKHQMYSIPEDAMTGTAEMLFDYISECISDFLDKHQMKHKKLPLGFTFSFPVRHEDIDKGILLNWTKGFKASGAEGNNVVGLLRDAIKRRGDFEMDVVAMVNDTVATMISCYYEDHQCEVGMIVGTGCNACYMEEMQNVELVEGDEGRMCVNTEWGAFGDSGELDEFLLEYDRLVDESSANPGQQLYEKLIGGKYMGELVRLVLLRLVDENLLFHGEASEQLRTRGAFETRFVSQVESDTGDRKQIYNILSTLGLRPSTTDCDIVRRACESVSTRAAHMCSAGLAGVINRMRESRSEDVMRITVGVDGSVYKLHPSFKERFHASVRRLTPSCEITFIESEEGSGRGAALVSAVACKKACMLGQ
As to the kind of experiment: Activation of glucokinase (unknown origin).

Data set [8] is described as follows: Lipophilicity, log D of the compound. It is filed as physicochemical. The note with it: octanol/water.
Data set [9] can be described thus: Apparent permeability from apical to basolateral side of human Caco2 cells. It is filed as ADME, cell-based. The note with it: Caco-2. On the technique in general: Passage across Caco-2 layers is used to estimate intestinal permeability.
Data set [10] addresses Voltage-gated inwardly rectifying potassium channel KCNH2 (Homo sapiens, UniProt Q12809). As to the kind of experiment: Inhibition of human ERG.
Data set [11] has as its system Rattus norvegicus. As to the kind of experiment: Antidiabetic activity in high fat fed Zucker rat assessed as reduction of AUC of plasma glucose level at 3 mg/kg by oral glucose tolerance test. It is filed as functional. More on the design: scale not given: the % may be the effect or the level left.
The nature of data set [12]: Solubility of the compound. It is filed as physicochemical.

Voltage-gated inwardly rectifying potassium channel KCNH2, sequence (Q12809 whole entry): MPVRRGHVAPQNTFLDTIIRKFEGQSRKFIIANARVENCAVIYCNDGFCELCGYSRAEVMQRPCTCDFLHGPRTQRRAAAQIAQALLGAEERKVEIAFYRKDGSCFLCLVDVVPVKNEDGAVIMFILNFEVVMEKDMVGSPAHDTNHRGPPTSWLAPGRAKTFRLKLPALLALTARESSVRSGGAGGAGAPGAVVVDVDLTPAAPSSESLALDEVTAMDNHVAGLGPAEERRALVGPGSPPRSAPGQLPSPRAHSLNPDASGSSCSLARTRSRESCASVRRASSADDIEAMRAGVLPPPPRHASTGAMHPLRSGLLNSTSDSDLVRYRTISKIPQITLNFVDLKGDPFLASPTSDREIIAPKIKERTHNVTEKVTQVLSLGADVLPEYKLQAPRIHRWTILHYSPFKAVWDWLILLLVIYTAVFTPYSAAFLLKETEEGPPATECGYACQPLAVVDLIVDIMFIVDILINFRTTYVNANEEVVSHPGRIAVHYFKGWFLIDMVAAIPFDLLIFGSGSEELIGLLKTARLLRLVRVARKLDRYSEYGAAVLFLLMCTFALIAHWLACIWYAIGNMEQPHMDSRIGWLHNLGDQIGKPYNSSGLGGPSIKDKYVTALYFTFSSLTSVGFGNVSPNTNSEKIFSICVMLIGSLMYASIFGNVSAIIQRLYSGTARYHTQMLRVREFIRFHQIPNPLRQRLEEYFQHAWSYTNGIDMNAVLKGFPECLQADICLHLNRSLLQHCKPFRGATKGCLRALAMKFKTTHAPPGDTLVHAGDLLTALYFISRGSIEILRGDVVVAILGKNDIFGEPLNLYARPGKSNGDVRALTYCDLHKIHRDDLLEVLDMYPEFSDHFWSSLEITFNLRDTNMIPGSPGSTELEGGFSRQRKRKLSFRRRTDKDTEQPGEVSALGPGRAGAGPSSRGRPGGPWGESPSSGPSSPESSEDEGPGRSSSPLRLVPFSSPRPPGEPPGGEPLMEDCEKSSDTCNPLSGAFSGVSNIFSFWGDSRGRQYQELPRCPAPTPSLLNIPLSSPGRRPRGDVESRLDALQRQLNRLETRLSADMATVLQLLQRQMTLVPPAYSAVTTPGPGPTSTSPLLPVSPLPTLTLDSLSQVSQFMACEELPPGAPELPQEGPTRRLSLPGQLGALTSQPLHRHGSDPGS

As to `COC[C@H](C)Oc1cc(Oc2ccc(S(C)(=O)=O)cc2)cc(C(=O)Nc2nccs2)c1`, the clearance in [1] amounted to 11 mL/min/kg; in data set [4] it was 7.2 mL/min/kg. In addition, the values for the Vd in [2] and in [5] were 0.3 L/kg and 0.8 L/kg, respectively. Moreover, the bioavailability stood at 28% in data set [3] and 11% in data set [6]. Further, in the data set with Rattus norvegicus [7], the Activity is reported as 29%.

In the case of `C[C@@H](CO)Oc1cc(Oc2ccc(C(=O)N3CCC3)cc2)cc(C(=O)Nc2ccn(C)n2)c1`, the response on Hexokinase-4 was half-maximal at 30 nM (EC50). The same compound registered a pH-dependent lipophilicity (logD) in data set [8] of 1.8. Further, the Papp A→B in [9] was found to be 1.8 ×10⁻⁶ cm/s. The IC50 in data set [10] turned out to be 70000 nM. Besides, the clearance in data set [1] and in data set [4] was 14 mL/min/kg throughout. Moreover, the Vd in data set [2] was 1.8 L/kg; in data set [5], 1.3 L/kg. In addition, the bioavailability in data set [3] stood at 30%; in data set [6], 51%. The Activity with Rattus norvegicus [11] stood at 24%. In [12], the solubility is 350 µM (≈ 158 µg/mL).

Regarding `COC[C@H](C)Oc1cc(Oc2ccc(S(C)(=O)=O)cc2)cc(C(=O)Nc2nc(C)ns2)c1`, the results for the clearance in data set [1] and in data set [4] were 5.6 mL/min/kg and 0.5 mL/min/kg, respectively. For the same compound, the Vd was determined as 0.2 L/kg in data set [2] and 0.3 L/kg in data set [5]. The bioavailability is 71% in [3] and 56% in data set [6]. For the same compound, the Activity with Rattus norvegicus [11] turned out to be 27%.

`C[C@@H](CO)Oc1cc(Oc2ccc(C(=O)N(C)C)cc2)cc(C(=O)Nc2ccn(C)n2)c1` gave an EC50 at Hexokinase-4 of 40 nM. In data set [8], this compound had a logD of 1.7. The apical-to-basolateral permeability (Papp A→B) in data set [9] was determined as 1.7 ×10⁻⁶ cm/s. The same compound displayed an IC50 in [10] greater than 100000 nM. In data set [1], this compound showed a clearance of 31 mL/min/kg. The Vd in data set [2] is 1.9 L/kg. The bioavailability in data set [3] was found to be 78%. The solubility in [12] was greater than 1000 µM.

For `COC[C@H](C)Oc1cc(Oc2ccc(C(=O)N(C)C)cc2)cc(C(=O)Nc2cc[nH]n2)c1`, a half-maximal response at Hexokinase-4 (EC50) required 50 nM. The pH-dependent lipophilicity (logD) in [8] was found to be 1.8. In data set [9], the Papp A→B turned out to be 2.3 ×10⁻⁶ cm/s. The IC50 in data set [10] is greater than 95000 nM. Besides, in data set [1], the clearance is 34 mL/min/kg. The Vd in data set [2] was 1.1 L/kg. The compound also yielded a bioavailability in [3] of 27%. In addition, in [12], the concentration in solution (solubility) was 730 µM (≈ 320 µg/mL).

The values above are taken from ChEMBL document CHEMBL3217434, “Matrix-based multiparameter optimisation of glucokinase activators: the discovery of AZD1092” (Medchemcomm, 2011).
